According to paper PMC5517430, “2,3,7,8-Tetrachlorodibenzo-p-dioxin (TCDD)-elicited effects on bile acid homeostasis: Alterations in biosynthesis, enterohepatic circulation, and microbial metabolism” (Scientific Reports, 2017):

Tests used:
Format in all cases: in vivo, mouse
[1] = system: intestine of male C57BL/6 mice; experiment: Sugar probe intestinal para-cellular permeability (UPLC-MS/MS of urine); details: 30 µg/kg TCDD every 4 d, 26 d after initial dose
Method: At 26d after the initial dose (PND54), mice were fasted for 4 h (without access to food or water) prior to oral gavage with 150 µL of a solution containing 100 mg sucrose, 12 mg lactulose, 8 mg mannitol, and 6 mg sucralose. Urine from each mouse was collected over a 5 h period, flash frozen, and combined prior to analysis. Urine was diluted in 95% acetonitrile/5% water: 100-fold for mannitol detection, 200-fold for sucrose and lactulose detection, and 500-fold for sucralose detection. Sugar probe recovery was measured using ultra high performance liquid chromatography-tandem mass spectrometry (UPLC-MS/MS), performed at the MSU RTSF Mass Spectrometry and Metabolomics Core (https://rtsf.natsci.msu.edu/mass-spectrometry/). Diluted urine samples were injected onto an Acquity UPLC BEH Amide column (1.7 µm, 2.1 × 100 mm) (Waters, Milford, MA) maintained at 50 °C on a Waters ACQUITY UPLC systems (Waters). Mobile phase A was 50 mM ammonium acetate buffer (pH = 9.6) and mobile phase B was acetonitrile. […]
Data analysis including peak integration was performed using MAVEN[75]. […] Fractional excretion of each probe was calculated using: (probe concentration from MS X total urine volume excreted)/probe input. […]

Abcc4 = experiment: Hepatic RNA-Seq differential gene expression (fold change, P1(t), ED50, BMD, BMDL); details: C57BL/6, mouse, liver, oral; male mice, 30 µg/kg TCDD every 4 d for 28 d
Method: (§1) Frozen ileal epithelium scrapings and liver samples were homogenized in TRIzol (Ambion, Waltham, MA) using a Mixer Mill 300 tissue homogenizer (Retsch, Germany) and total RNA was isolated as previously described. RNA was quantified using a Nano-drop spectrophotometer (Thermo Scientific, Wilmington, DE) at 260 nm, and purity was assessed using the A260/A280 ratio and the Caliper LabChip GX (Perkin Elmer, Waltham, MA).
(§2) Dose-dependent gene expression was examined using RNA-Seq performed at the MSU Research Technology Support Facility (RTSF) Genomics Core (rtsf.natsci.msu.edu/genomics). Ileal libraries from three independent biological replicates (n = 3) were prepared using the Ovation Mouse RNA-Seq System 1–16 sample preparation kit (NuGen, San Carlos, CA), with an additional DNase step. Libraries were quantified and sequenced as previously described, using a read depth of ~30 M per sample[33], [67]. Quality was determined using FASTQC v0.11.3 and adaptor sequences were removed using Trimmomatic v0.33. Reads were mapped to the mouse reference genome (GRCm38 release 81) using Bowtie2 v2.2.6 and TopHat2 v2.1.0. Alignments were converted to SAM format using SAMTools v1.2.0. For TCDD-mediated differential gene expression, fold changes were calculated relative to vehicle controls. Hepatic RNA-Seq analysis was previously published. Genes were considered differentially expressed if |fold change| ≥ 1.5 and statistical P1(t) value ≥ 0.8 at one or more doses. RNA-Seq datasets for the ileal epithelium and liver were deposited in the Gene Expression Omnibus (GEO; accession number GSE89430 and GSE87519, respectively). The RNA-Seq results (fold changes, P1(t) values) for each gene discussed in the manuscript have been compiled in Supplementary Table S1. […] Estimation of benchmark dose (BMD) and BMD lower confidence limit (BMDL) was performed using BMDExpress[69] as previously described, and has been included in Supplementary Table S1.

Cyp39a1 = experiment: as above; details: C57BL/6, mouse, liver, oral; male mice, TCDD every 4 d for 28 d
Method: as §1, §2

Slc6a6 = experiment: as above; details: C57BL/6, mouse, liver, oral; male mice, TCDD every 4 d for 28 d
Method: as §1, §2

With `Clc1cc2c(cc1Cl)Oc1cc(Cl)c(Cl)cc1O2` [TCDD, 2,3,7,8-tetrachlorodibenzo-p-dioxin] the “Permeability of the small intestine (lactulose-to-mannitol ratio)” value [1] was “unaffected”, the fold induction at 28 d (Abcc4) was 58.1 and the fold induction at 28 d (Cyp39a1) was 2.1. The fold induction at 28 d (Slc6a6) was 1.8.
